The values below come from patent US20230339896A1, “HPK1 INHIBITORS AND USES THEREOF” (QILU REGOR THERAPEUTICS INC., priority 2020, published 2023).

Data set [1] in a line: Metabolic stability in liver microsomes, rat (RLM). The data set is classed as in vitro ADME, Sprague Dawley Rat. As to conditions: 1 µM compound, NADPH; for half-life at 1 µM: Sprague Dawley, rat, liver microsomes, pH 7.4, 0.5 mg/mL protein, read-out: Metabolic Stability T½ (min), RLM. How it is done:
This assay is for determining the stability of test compound in liver microsomes. The study will be conducted in accordance with International Bioethical Standards “World Medical Association Declaration of
Human, Sprague Dawley Rat, CD-1 mouse, Beagle Dog and Cynomolgus Monkey Liver Microsomes samples purchased from BD Gentest or RILD.
0.1 M Potassium phosphate buffer, pH 7.4: • Buffer A: 1.0 L of 0.1 M monobasic Potassium Phosphate buffer containing 1.0 mM EDTA • Buffer B: 1.0 L of 0.1 M Dibasic Potassium Phosphate buffer containing 1.0 mM EDTA • Buffer C (K-phosphate buffer): 0.1 M Potassium Phosphate buffer, 1.0 mM EDTA, pH 7.4 by titrating 700 mL of buffer B with buffer A while monitoring the pH meter
• Prepare 3× test compound or positive control solutions: 500 µM spiking solution: add 10 µL of 10 mM DMSO stock solution into 190 µL ACN. • 1.5 µM spiking solution in microsomes (0.75 mg/mL): add 1.5 µL of 500 µM spiking solution and 18.75 µL of 20 mg/mL liver microsomes into 479.75 µL of K-phosphate buffer.
Add 30 µL of 1.5 µM spiking solution containing 0.75 mg/ml microsomes solution to the wells designated for 45 min, 30 min, 15 min, 5 min and 0 min. Pre-incubate the plate at 37° C. for 5 minutes.
Add 15 µL of NADPH stock solution (6 mM) to all of the wells, and start timing. Immediately, add 135 µL of ACN containing IS to the wells designated as Time 0.
At 5 min, 15 min, 30 min and 45 min, add 135 µL of ACN containing IS to the wells, respectively.
After quenching, centrifuge the reaction mixtures at 3220 x g for 10 min.
Transfer 50 µL of the supernatant from each well into a 96-well sample plate containing 50 µL of ultra pure water (Millipore) for LC/MS analysis.
The % parent remaining at each incubation time point is calculated by comparing to the peak area ratio (compound peak area/internal standard peak area) at T0 (0 minute incubation). The ln peak area ratio is plotted against time and the gradient of the line is determined. The half-life and metabolism of compounds is calculated based upon a natural log linear regression of the relative peak areas vs time. The half-life and intrinsic clearance (Clint) in microsomes are calculated using the equations below. • In Vitro T ½ (min) = 0.693/Elimination rate of constant (k) • Clint (µL/min/mg of microsomal protein) = (0.693 / In Vitro T ½) (Incubation Volume/ mg of microsomes)
A general note: Liver microsomes are vesicles of endoplasmic reticulum, rich in cytochrome P450 enzymes.

Data set [2] can be described thus: MDCK permeability assay. The data set is classed as in vitro ADME. As to conditions: dog, MDCK, pH 7.4. The procedure:
This assay is for generating screening data only, and to estimate the intestinal absorption potential of drug candidates. The study will be conducted in accordance with International Bioethical Standards “World MedicalAssociation Declaration of Helsinki.
Cell line: • ▪ MDCK (ATCC), or MDCK MDR1 (NKI).
Prepare donor buffer: • For A-to-B direction: • ✔ HBSS buffer with 0.3% DMSO and 5 µM Lucifer Yellow (LY): add 150 µL DMSO and 125 µL LY (2 mM) into 50 mL HBSS buffer (pH 7.4). • ✔ HBSS buffer with 0.1% DMSO and 5 µM Lucifer Yellow (LY): add 50 µL DMSO and 125 µL LY (2 mM) into 50 mL HBSS buffer (pH 7.4). • ✔ HBSS buffer with 5 µM Lucifer Yellow (LY): add 125 µL LY (2 mM) into 50 mL HBSS buffer (pH 7.4). • For B-to-A direction: • ✔ HBSS buffer with 0.3% DMSO: add 150 µL DMSO into 50 mL HBSS buffer (pH 7.4). • ✔ HBSS buffer with 0.1% DMSO: add 50 µL DMSO into 50 mL HBSS buffer (pH 7.4). • ✔ HBSS buffer without DMSO. • Prepare receiver buffer: • For A-to-B direction: Prepare HBSS buffer with 0.4% DMSO: add 200 µL DMSO into 50 mL HBSS buffer (pH 7.4) • For B-to-A direction: Prepare HBSS buffer with 0.4% DMSO and 5 µM LY: add 200 uL DMSO and 125 µL LY (2 mM) into 50 mL HBSS buffer (pH 7.4) • Controls: • Prepare 10 mM stock concentrations of compound in DMSO and Lucifer Yellow in assay buffer using the following formula: • (Actual Weight/Molecular Weight)/mL solvent =10 mM • Reference compound: Erythromycin, Metoprolol, Atenolol
MDCK assay plates are seeded 3-4 days prior to running the assay. 24-well plates are seeded at a cell density of 0.88 × 10^5/well in a 400 µL apical chamber volume (2.2×10^5 /mL) with a 25 mL volume of growth medium to the 24-well basal chamber. Assay plates are generally provided with a growth medium change 24 hours prior to the assay.
MDCK assay plates are rinsed with HBSS+ buffer prior to running the assay. After rinsing, fresh HBSS+ is added to the assay plate in a 400 µL apical chamber volume and a 0.8 mL HBSS+ basal chamber volume. Measure the electrical resistance across the monolayer using the Millicell ERS system ohm meter. (The cells will be used if TEER is higher than 100 ohm*cm^2).
Preparation of the cell plates: • Remove the buffer from the apical side and basolateral side. Add 600 µL of donor solution (for A-to-B) or 500 µL of receiver solution (for B-to-A) to the apical wells based on plate map. • A fresh basolateral plate is prepared by adding 800 µL of receiver solution (for A-to-B) or 900 µL of donor solution (B-to-A) to the well of a new 24-well plate. • Put the apical plate and basolateral plate into 37° C. incubator.
Preparation of analytical plate: • After 5 min, transfer 100 µL of samples from all donors (for both A-to-B and B-to-A) into appropriate wells of a sample plate for D0. And transfer 100 µL of samples from all apical chambers (the donor of A-to-B and receiver of B-to-A) into appropriate wells of a microplate for Lucifer Yellow D0 (D0 LY) • Lay the apical plate to the basolateral plate to start transport process. • At 90 min, separate the apical and basolateral plates and transfer 100 µL of samples from all donors (for both A-to-B and B-to-A) into appropriate wells of a new sample plate for D90, and transfer 200 µL of samples from all receivers into appropriate wells of a sample plate for R90. Transfer 100 µL of samples from all basolateral chambers (receiver of A-to-B and donor of B-to-A) into appropriate wells of a new microplate for Lucifer Yellow R90 (R90 LY). • Determine LY permeability by reading D0 LY and R90 LY at an excitation wavelength of 485 nm and an emission wavelength of 535 nm using a fluorescent plate reader. • Sample preparation: • For receiver solution: 60 µL of sample + 60 µL ACN with IS (200 ng/mL Osalmid) • For donor solution: 6 µL of sample + 54 µL 0.4% DMSO/HBSS + 60 µL ACN with IS (200 ng/mL Osalmid) […]

One may read the Papp A→B as how fast a substance crosses the layer from the apical side. The Papp B→A is how fast a substance crosses the layer from the basolateral side.

Consider `CN1CCc2cc(F)c(Nc3ncc(Cl)c(N4C[C@](C)(CC(=O)O)c5ccccc54)n3)cc2C1` (single isomer, unassigned) [Example 5, (R)-2-[1-[5-chloro-2-[(6-fluoro-2-methyl-3,4-dihydro-1H-isoquinolin-7-yl)amino]pyrimidin-4-yl]-3-methyl-indolin-3-yl]acetic acid or (S)-2-[1-[5-chloro-2-[(6-fluoro-2-methyl-3,4-dihydro-1H-isoquinolin-7-yl)amino]pyrimidin-4-yl]-3-methyl-indolin-3-yl]acetic acid], for which the “Metabolic Stability T½ (min), RLM” value in data set [1] (0.5 mg/mL protein) is reported as “RLM: 23 min”.

For the molecule `COc1cc2c(cc1Nc1ncc(Cl)c(N3CC(C(=O)O)c4ccccc43)n1)CN(C)CC2` (stereo not drawn) [Compound 7, reference compound], in data set [2], the Papp A→B at 90 min is 3.2 ×10⁻⁶ cm/s and the Papp B→A at 90 min stood at 9.4 ×10⁻⁶ cm/s. In addition, the half-life at 1 µM in data set [1] was 4260 min.

For `COc1cc2c(cc1Nc1ncc(Cl)c(N3CC(C)(CC(=O)O)c4ccccc43)n1)CN(C)CC2` (single isomer, unassigned) [Example 2, (R)-2-(1-(5-chloro-2-((6-methoxy-2-methyl-1,2,3,4-tetrahydroisoquinolin-7-yl)amino)pyrimidin-4-yl)-3-methylindolin-3-yl)acetic acid or (S)-2-(1-(5-chloro-2-((6-methoxy-2-methyl-1,2,3,4-tetrahydroisoquinolin-7-yl)amino)pyrimidin-4-yl)-3-methylindolin-3-yl)acetic acid], in data set [1], the half-life at 1 µM was 38.4 min.

As for `COc1cc2c(cc1Nc1ncc(Cl)c(N3CC(C)(CC(=O)O)c4ccccc43)n1)CN(C)CC2` (stereo not drawn) [Example 1, 2-(1-(5-chloro-2-((6-methoxy-2-methyl-1,2,3,4-tetrahydroisoquinolin-7-yl)amino)pyrimidin-4-yl)-3-methylindolin-3-yl)acetic acid], in data set [2], the apical-to-basolateral permeability (Papp A→B) at 90 min was 2.2 ×10⁻⁶ cm/s and the Papp B→A at 90 min came to 47.8 ×10⁻⁶ cm/s.

For `COc1cc2c(cc1Nc1ncc(Cl)c(N3CC(CC(=O)O)c4ccccc43)n1)CN(C)CC2` (stereo not drawn) [Compound 8, reference compound], in data set [2], the Papp A→B at 90 min is 4.5 ×10⁻⁶ cm/s and the Papp B→A at 90 min was 38.5 ×10⁻⁶ cm/s. In addition, the half-life at 1 µM in data set [1] is 48.2 min.

Take `COc1cc2c(cc1Nc1ncc(Cl)c(N3CC(C)(CC(=O)O)c4ccc(F)cc43)n1)CN(C)CC2` (stereo not drawn) [Compound 10, reference compound]: in data set [2], the Papp A→B at 90 min turned out to be 2.6 ×10⁻⁶ cm/s and the Papp B→A at 90 min came out at 58.9 ×10⁻⁶ cm/s. Moreover, in data set [1], the half-life at 1 µM came out at 17 min.

With `CN1CCc2cc(F)c(Nc3ncc(Cl)c(N4CC(C)(CC(=O)O)c5ccccc54)n3)cc2C1` (stereo not drawn) [Example 4, 2-(1-(5-chloro-2-((6-fluoro-2-methyl-1,2,3,4-tetrahydroisoquinolin-7-yl)amino)pyrimidin-4-yl)-3-methylindolin-3-yl)acetic acid], in data set [2], the Papp A→B at 90 min stood at 7.7 ×10⁻⁶ cm/s and the Papp B→A at 90 min came out at 41.1 ×10⁻⁶ cm/s.
